According to ChEMBL document CHEMBL3286257, “Development of second generation EP2 antagonists with high selectivity” (Eur J Med Chem, 2014):
In brackets after ≈: the same amount, converted by molar mass.

Assays:
[1] = molecular target: Prostaglandin E2 receptor EP2 subtype (Homo sapiens) (UniProt P43116); experiment: Antagonist activity at EP2 receptor (unknown origin) expressed in rat C6 cells assessed as inhibition of PGE2-induced response; type: cell-based
[2] = Metabolic stability of the compound in human liver microsomes assessed as compound remaining at 10 uM after 60 mins; type: ADME; conditions: read-out: Stability
[3] = molecular target: Prostaglandin E2 receptor EP2 subtype (Homo sapiens) (UniProt P43116); experiment: Competitive antagonist activity at human EP2 receptor assessed as inhibition of PGE2-induced response
[4] = Metabolic stability of the compound in mouse liver microsomes assessed as compound remaining at 10 uM after 30 mins; type: ADME; conditions: read-out: Stability
[5] = Metabolic stability of the compound in mouse liver microsomes assessed as compound remaining at 10 uM after 15 mins; type: ADME; conditions: read-out: Stability
[6] = Metabolic stability of the compound in mouse liver microsomes assessed as compound remaining at 10 uM after 60 mins; type: ADME; conditions: read-out: Stability
[7] = Metabolic stability of the compound in human liver microsomes assessed as compound remaining at 10 uM after 15 mins; type: ADME; conditions: read-out: Stability
[8] = Aqueous solubility of the compound by nephelometry method; type: physicochemical; conditions: buffer
[9] = Metabolic stability of the compound in human liver microsomes assessed as compound remaining at 10 uM after 30 mins; type: ADME; conditions: read-out: Stability
[10] = system: C6; experiment: (§1) Cytotoxicity against rat C6 cells; type: cell-based; conditions: c6
[11] = species: Homo sapiens; experiment: Selectivity index, ratio of KB for EP4 receptor (unknown origin) to KB for EP2 receptor (unknown origin)
[12] = system: EP2 receptor; experiment: Therapeutic index, ratio of CC50 for rat C6 cells to KB for EP2 receptor (unknown origin); type: cell-based; conditions: read-out: TI
[13] = species: Homo sapiens; experiment: Selectivity index, ratio of KB for IP receptor (unknown origin) to KB for EP2 receptor (unknown origin)
[14] = molecular target: Prostacyclin receptor (Homo sapiens) (UniProt P43119); experiment: Antagonist activity at IP receptor (unknown origin) expressed in rat C6 cells by TR-FRET assay; type: cell-based
[15] = molecular target: T1, Prostaglandin D2 receptor (Homo sapiens) (UniProt Q13258); experiment: Antagonist activity at DP1 receptor (unknown origin) expressed in rat C6 cells by TR-FRET assay; type: cell-based
T1 sequence (whole entry): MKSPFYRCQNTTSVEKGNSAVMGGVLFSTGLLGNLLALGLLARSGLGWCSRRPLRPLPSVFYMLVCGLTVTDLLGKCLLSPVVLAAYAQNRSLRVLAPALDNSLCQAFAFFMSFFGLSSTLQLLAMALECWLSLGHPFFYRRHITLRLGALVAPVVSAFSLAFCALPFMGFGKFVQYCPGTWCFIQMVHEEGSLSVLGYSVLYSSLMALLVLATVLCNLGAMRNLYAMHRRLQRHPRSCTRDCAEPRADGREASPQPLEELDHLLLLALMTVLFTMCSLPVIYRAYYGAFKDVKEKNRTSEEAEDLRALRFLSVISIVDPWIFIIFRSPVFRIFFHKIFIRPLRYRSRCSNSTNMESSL

[16] = molecular target: Prostaglandin E2 receptor EP4 subtype (Homo sapiens) (UniProt P35408); experiment: Antagonist activity at EP4 receptor (unknown origin) expressed in rat C6 cells assessed as inhibition of PGE2-induced response; type: cell-based
[17] = species: Homo sapiens; experiment: Selectivity index, ratio of KB for DP1 receptor (unknown origin) to KB for EP2 receptor (unknown origin)
[18] = as §1; type: cell-based; conditions: C6 cells
[19] = Cmax in C57Bl/6 mouse at 5 mg/kg, ip; type: ADME, organism-based; parameters: dose 5 mg/kg, route intraperitoneal; conditions: in vivo
[20] = AUC (infinity) in C57Bl/6 mouse at 5 mg/kg, ip; type: ADME, organism-based; parameters: time infinity, dose 5 mg/kg, route intraperitoneal; conditions: plasma
[21] = AUClast in C57Bl/6 mouse at 5 mg/kg, ip; type: ADME, organism-based; parameters: time 0 - last, dose 5 mg/kg, route intraperitoneal; conditions: plasma
[22] = Cmax in C57Bl/6 mouse at 10 mg/kg, po; type: ADME, organism-based; parameters: dose 10 mg/kg, route oral; conditions: in vivo
[23] = Terminal half life in C57Bl/6 mouse at 5 mg/kg, ip; type: ADME, organism-based; parameters: dose 5 mg/kg, route intraperitoneal; conditions: in vivo, read-out: beta t1/2 (converted)

Chain of Prostacyclin receptor (Homo sapiens) (P43119 whole entry): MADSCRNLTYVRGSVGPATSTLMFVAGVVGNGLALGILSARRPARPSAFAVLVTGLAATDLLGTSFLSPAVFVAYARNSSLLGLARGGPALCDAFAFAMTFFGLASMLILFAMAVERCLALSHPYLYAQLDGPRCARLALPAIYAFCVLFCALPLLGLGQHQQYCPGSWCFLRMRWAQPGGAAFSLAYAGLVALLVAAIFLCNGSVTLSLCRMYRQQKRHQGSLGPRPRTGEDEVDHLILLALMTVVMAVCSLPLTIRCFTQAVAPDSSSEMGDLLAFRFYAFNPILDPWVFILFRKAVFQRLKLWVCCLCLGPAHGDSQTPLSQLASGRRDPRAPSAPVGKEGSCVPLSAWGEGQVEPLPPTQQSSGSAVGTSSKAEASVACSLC
Chain of Prostaglandin E2 receptor EP4 subtype (Homo sapiens) (P35408 whole entry): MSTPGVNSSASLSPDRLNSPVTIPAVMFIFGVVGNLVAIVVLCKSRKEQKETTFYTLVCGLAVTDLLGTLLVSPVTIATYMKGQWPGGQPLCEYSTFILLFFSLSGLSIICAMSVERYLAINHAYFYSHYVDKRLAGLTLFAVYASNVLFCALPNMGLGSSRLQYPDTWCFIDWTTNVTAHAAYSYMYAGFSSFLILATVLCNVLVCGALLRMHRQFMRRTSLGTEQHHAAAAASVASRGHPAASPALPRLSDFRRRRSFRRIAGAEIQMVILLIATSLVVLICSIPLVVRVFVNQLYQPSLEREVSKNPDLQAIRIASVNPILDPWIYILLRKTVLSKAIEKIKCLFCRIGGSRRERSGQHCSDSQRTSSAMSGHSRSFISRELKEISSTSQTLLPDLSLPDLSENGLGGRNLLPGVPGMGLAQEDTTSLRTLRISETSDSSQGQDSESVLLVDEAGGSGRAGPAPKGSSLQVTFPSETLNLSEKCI
Chain of Prostaglandin E2 receptor EP2 subtype (Homo sapiens) (P43116 whole entry): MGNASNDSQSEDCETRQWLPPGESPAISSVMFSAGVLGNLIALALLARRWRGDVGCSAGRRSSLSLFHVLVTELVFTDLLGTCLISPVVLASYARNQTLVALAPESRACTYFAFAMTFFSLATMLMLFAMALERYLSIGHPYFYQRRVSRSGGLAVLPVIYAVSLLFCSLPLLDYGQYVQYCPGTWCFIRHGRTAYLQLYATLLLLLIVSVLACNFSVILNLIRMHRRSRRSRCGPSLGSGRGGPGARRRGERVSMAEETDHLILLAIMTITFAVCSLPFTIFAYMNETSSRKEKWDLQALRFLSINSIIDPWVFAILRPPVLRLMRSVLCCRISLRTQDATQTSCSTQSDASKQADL

Row | Structure (SMILES) | Kb [1] | remaining at 1 h, 10 µM [2] | Kb [3] | remaining at 0.5 h, 10 µM [4] | remaining at […], 10 µM [5] | remaining at 1 h, 10 µM [6] | remaining at […], 10 µM [7] | solubility kinetic [8] | remaining at 0.5 h, 10 µM [9] | CC50 [10] | Ratio [11] | selectivity ratio [12] | Ratio [13] | Kb [14] | Kb [15] | Kb [16] | Ratio [17] | other results
1 | Cc1cc2ccccc2n1CCNC(=O)c1ccc(N2CCC(C(=O)O)CC2)cc1 | 0.0897 µM | 95% | 0.097 µM | 92% | 97% | 86% | 97% | > 750 µM | 97% |  |  |  |  |  |  |  |  | 
2 | Cc1cc2ccccc2n1CCNC(=O)c1ccc(N2CCC(O)CC2)cc1 | 0.0268 µM | 31% |  | 12% | 35% | 2% | 66% | 160 µM (≈ 60.4 µg/mL) | 49% | 163 µM | 2620 | 6080 | 675 | 18.1 µM | 4.62 µM | 70.3 µM | 172 | 
3 | CCN(CC)c1ccc(C(=O)NCCc2c(C)[nH]c3ccccc23)cc1 | 0.0069 µM | 5% | 0.0163 µM | 19% | 34% | 5% | 40% | < 25 µM | 20% |  | 6940 | > 72500 |  |  | 9.48 µM | 48 µM | 1370 | CC50 [18]: > 500 µM
4 | CCCN(CCC)c1ccc(C(=O)NCCn2c(C)cc3ccccc32)cc1 | 0.0119 µM | 5% |  | 26% | 30% | 6% | 40% | < 25 µM | 20% | 332 µM | 1320 | 28100 | 95 | 1.12 µM | 3.55 µM | 15.5 µM | 298 | 
5 | Cc1cc2ccccc2n1CCNC(=O)c1ccc(N2CCOCC2)c(F)c1 | 0.0257 µM |  |  |  |  |  |  |  |  |  | 565 | > 19400 | 217 | 5.6 µM | 2.2 µM | 14.5 µM | 85 | CC50 [18]: > 500 µM
6 | Cc1cc2ccccc2n1CCNC(=O)c1ccc(N2CCCCC2)cc1 | 0.0094 µM | 21% |  | 18% | 24% | 7% | 67% | < 25 µM | 42% | 315 µM | 3210 | 33500 | 360 | 3.4 µM | 2.57 µM | 30.2 µM | 273 | 
7 | Cc1cc2ccccc2n1CCNC(=O)c1ccc(N2CCCC2)cc1 | 0.0247 µM | 1.4% |  | 32% | 52% | 18% | 22% | < 25 µM | 12% | 337 µM | 1160 | 16100 | 570 | 14.2 µM | > 10 µM | 28.7 µM | > 516 | 
8 | Cc1cc2ccccc2n1CCNC(=O)c1ccc(-c2nnn[nH]2)cc1 |  | 73% | 0.0164 µM | 75% | 85% | 57% | 96% | 257 µM (≈ 89 µg/mL) | 87% |  |  |  |  |  | 0.66 µM |  |  | CC50 [18]: > 300 µM; Cmax [19]: 2040 ng/mL; AUC(0-inf) [20]: 1600 ng·h/mL; AUC(0-t) [21]: 1580 ng·h/mL; Cmax [22]: 134 nM; half-life [23]: 18 min
9 | CCN(CC)c1ccc(C(=O)NCCn2c(C)cc3ccccc32)cc1 | 0.0027 µM | 4% | 0.0175 µM | 9% | < 14% | 3% | 19% | < 25 µM | 9% | 320 µM | 11600 | 119000 | 2960 | 8 µM | 3.19 µM | 31.3 µM | 1220 | 
10 | Cc1cc2ccccc2n1CCNC(=O)c1ccc(N2CCOCC2)cc1 | 0.0096 µM | 22% | 0.0161 µM | 5% | 8% | 0% | 58% | 67 µM (≈ 24.4 µg/mL) | 38% | 289 µM | 2190 | 30100 | 206 | 1.98 µM | 5.21 µM | 21 µM | 533 | 
11 | Cc1cc2ccccc2n1CCNC(=O)c1ccc(N2CCCCCC2)cc1 | 0.0226 µM | 28% |  | 37% | 49% | 12% | 66% | < 25 µM | 64% | 327 µM | 1040 | 14500 | 375 | 8.5 µM | 7.72 µM | 23.6 µM | 342 | 
